According to the supplement of paper PMC13380429:

Assays:
Details in all cases: 72 h
Calu-3 [1] = experiment: cell viability relative to DMSO; higher = less toxic
U2OS [2] = experiment: as above
Caco-2 [3] = experiment: as above
Vero E6 [4] = experiment: as above
HepG2 [5] = experiment: as above
Calu-3 [6] = experiment: relative viability EC50 (midpoint between 100% and the lowest measured viability); higher = less toxic
U2OS [7] = experiment: as above
Caco-2 [8] = experiment: as above
Vero E6 [9] = experiment: as above
HepG2 [10] = experiment: as above
Calu-3 [11] = experiment: drug sensitivity score (DSS) for viability; higher = more toxic; extreme values may be limits of the assay
U2OS [12] = experiment: as above
Caco-2 [13] = experiment: as above
Vero E6 [14] = experiment: as above
HepG2 [15] = experiment: as above

Row | Structure (SMILES) | cell viability (Calu-3 [1]; 1 nM) [%] | cell viability (Calu-3 [1]; 10 nM) [%] | cell viability (Calu-3 [1]; 100 nM) [%] | cell viability (Calu-3 [1]; 1000 nM) [%] | cell viability (Calu-3 [1]; 10000 nM) [%] | cell viability (U2OS [2]; 1 nM) [%] | cell viability (U2OS [2]; 10 nM) [%] | cell viability (U2OS [2]; 100 nM) [%] | cell viability (U2OS [2]; 1000 nM) [%] | cell viability (U2OS [2]; 10000 nM) [%] | cell viability (Caco-2 [3]; 1 nM) [%] | cell viability (Caco-2 [3]; 10 nM) [%] | cell viability (Caco-2 [3]; 100 nM) [%] | cell viability (Caco-2 [3]; 1000 nM) [%] | cell viability (Caco-2 [3]; 10000 nM) [%] | cell viability (Vero E6 [4]; 1 nM) [%] | cell viability (Vero E6 [4]; 10 nM) [%] | cell viability (Vero E6 [4]; 100 nM) [%] | cell viability (Vero E6 [4]; 1000 nM) [%] | cell viability (Vero E6 [4]; 10000 nM) [%] | cell viability (HepG2 [5]; 1 nM) [%] | cell viability (HepG2 [5]; 10 nM) [%] | cell viability (HepG2 [5]; 100 nM) [%] | cell viability (HepG2 [5]; 1000 nM) [%] | cell viability (HepG2 [5]; 10000 nM) [%] | relative viability EC50 (Calu-3 [6]) [µM] | relative viability EC50 (U2OS [7]) [µM] | relative viability EC50 (Caco-2 [8]) [µM] | relative viability EC50 (Vero E6 [9]) [µM] | relative viability EC50 (HepG2 [10]) [µM] | drug sensitivity score (Calu-3 [11]) | drug sensitivity score (U2OS [12]) | drug sensitivity score (Caco-2 [13]) | drug sensitivity score (Vero E6 [14]) | drug sensitivity score (HepG2 [15])
1 | C[C@@H]1C[C@H]2[C@@H]3CCC4=CC(=O)C=C[C@]4(C)[C@@]3(F)[C@@H](O)C[C@]2(C)[C@H]1C(=O)CO [desoximetasone] | 86.2 | 95 | 101 | 101 | 88.8 | 98.3 | 97.2 | 91.9 | 92.9 | 101 | 94.1 | 90.1 | 88 | 95.2 | 105 | 93 | 91.3 | 93.2 | 88.5 | 99 | 102 | 95.7 | 102 | 91.3 | 109 | > 10 | > 10 | > 10 | > 10 | > 10 | 0 | 0 | 0 | 0 | 0
2 | CCCCCCCCC(=O)N[C@H](CN1CCCC1)[C@H](O)c1ccc2c(c1)OCCO2 | 109 | 94.9 | 92.2 | 92 | 94.8 | 101 | 102 | 105 | 98.5 | 102 | 101 | 94.9 | 102 | 111 | 98.9 | 91.9 | 97.2 | 87.7 | 90.4 | 95.4 | 96.8 | 105 | 105 | 106 | 104 | > 10 | > 10 | > 10 | > 10 | > 10 | 0 | 0 | 0 | 0 | 0
3 | COC1=C[C@@H]2[C@@H]3Cc4ccc(OC)c(O)c4[C@]2(CCN3C)CC1=O [sinomenine] | 100 | 95.4 | 100 | 92.4 | 95.8 | 94.1 | 98.5 | 98.8 | 104 | 94.3 | 107 | 96.9 | 90.5 | 98.8 | 104 | 105 | 97.7 | 103 | 97 | 105 | 109 | 104 | 99.2 | 88.5 | 96.3 | > 10 | > 10 | > 10 | > 10 | > 10 | 0 | 0 | 0 | 0 | 0.4
4 | Oc1c(I)cc(I)cc1I [AM-24] | 96.7 | 95 | 104 | 97.3 | 101 | 97.8 | 97.8 | 103 | 97.7 | 104 | 99.5 | 97.6 | 93 | 88.5 | 101 | 96.8 | 103 | 99.6 | 104 | 97.2 | 95.4 | 103 | 89.9 | 108 | 102 | > 10 | > 10 | > 10 | > 10 | > 10 | 0 | 0 | 0 | 0 | 0
5 | O=C(O)[C@H](CC(=O)N1C[C@H]2CCCC[C@H]2C1)Cc1ccccc1 [mitiglinide] | 86.3 | 93 | 88.2 | 92.8 | 104 | 92.2 | 104 | 95.3 | 116 | 96.4 | 99.9 | 96.4 | 95 | 101 | 94.9 | 98.4 | 104 | 101 | 98.5 | 103 | 98.2 | 84.2 | 91.5 | 94.6 | 104 | > 10 | > 10 | > 10 | > 10 | > 10 | 0 | 0 | 0 | 0 | 0
6 | O=C(Nc1ccccc1C(=O)Nc1ccc(CCO)cc1)c1ccc([N+](=O)[O-])cc1 [KS-176] | 100 | 87.9 | 98.1 | 102 | 91.5 | 96.7 | 104 | 97.6 | 97.8 | 93.4 | 94 | 94.8 | 87.9 | 97.5 | 90.6 | 98.2 | 102 | 99.2 | 92.6 | 93.1 | 94 | 95 | 96.3 | 95.2 | 83.2 | > 10 | > 10 | > 10 | > 10 | > 10 | 0 | 0 | 0 | 0 | 0.1
7 | COc1cc2c(c(OC)c1OC)-c1c(cc3c(c1OC)OCO3)C[C@H](C)[C@@](C)(O)C2 [schisandrol-B] | 100 | 92.8 | 101 | 105 | 96.5 | 101 | 99.9 | 105 | 103 | 97.9 | 104 | 92 | 95.9 | 95.9 | 97.4 | 102 | 102 | 102 | 100 | 97.8 | 100 | 114 | 93.3 | 98.4 | 100 | > 10 | > 10 | > 10 | > 10 | > 10 | 0 | 0 | 0 | 0 | 0
